Results published in US12473282B2, “Biphenyl fluorine double bond derivative, preparation method therefor, and pharmaceutical application thereof” (Abbisko Therapeutics Co., Ltd., priority 2020, dated 2025).

Experiment: Jurkat reporter gene cellular assay
Format: cell-based
Details: Homo sapiens; Jurkat/NF-κB-luc/PD1 + Raji-PD-L1 coculture, OKT3 1 μg/mL, 6 hrs, activation fold; read-out: Cell Activity EC50
Protocol: The effect of compounds of the examples of the present invention and positive compounds on the interaction between PD-1 and PD-L1 expressed on cell surfaces, and the related influence on T cell functions, were determined by a Jurkat reporter gene cellular assay.
Briefly, the reporter gene plasmid of NF-κB-luc and the plasmid of human PD-1 were transfected into Jurkat cells to establish a stably transfected cell line capable of stably expressing both PD-1 and NF-κB-Luc reporter genes; the expression level of PD-1 on the cell surface was confirmed by flow cytometry; and the expression of the reporter gene was confirmed via the response of the reporter gene stimulated by OKT-3 and Raiji cells.
In addition, the plasmid of human PD-L1 was transfected into Raji cells to obtain a cell line capable of stably expressing PD-L1. Jurkat/NF-κB-luc/PD1 cells and Raji-PD-L1 cells were then cocultured and stimulated with OKT-3. On this basis, the compounds were added, and the enhancement of the signal pathway of T cell activation by the inhibitory effect of the compounds on the interaction between PD-1 and PD-L1 was evaluated by readings of reporter gene responses. The specific experimental process was as follows: • 1. 30 μL of compound or antibody solution was added to each well of a white 96-well plate (corning, 3610) at different diluted concentrations, and 10 μL of OKT3 (Biolegend, 317326) was then added (the final concentration of OKT3: 1 μg/mL); • 2. 20 μL of Raji-PD-L1 cell suspension was added to each well with 5*10^4 cells for each well, and was incubated in an incubator for 20 min; • 3. 20 μL of Jurkat/NF-Kb-luc/PD-1 cell suspension was added to each well with 5*10^4 cells for each well, and well mixed, and 6 hrs later, Bright-glo (Promega, E2620) was applied and plates were read on Envision; • 4. The reading of each well treated with the compound was compared with the reading of each well treated with DMSO to obtain the activation fold of the compound; • 5. EC50 values of compounds and positive compounds of the examples of the present invention were determined by non-linear regression analysis of activation folds at different compound concentrations.

Row | SMILES | EC50 [µM]
1 | COc1cc(/C(F)=C/c2cccc(-c3cccc(NC(=O)c4nc5c(n4C)CCN(CCC46CCC(C(=O)O)(CC4)C6)C5)c3Cl)c2Cl)ncc1CNC12CC3CC(CC(C3)C1)C2 [Example 53, (Z)-4-(2-(2-((3′-(2-(5-((adamantan-1-ylamino)methyl)-4-methoxypyridin-2-yl)-2-fluorovinyl)-2,2′-dichloro-[1,1′-biphenyl]-3-yl)carbamoyl)-1-methyl-1,4,6,7-tetrahydro-5H-imidazo[4,5-c]pyridin-5-yl)ethyl)bicyclo[2.2.1]heptane-1-carboxylic acid] | 1.03
2 | COc1cc(/C(F)=C/c2cccc(-c3cccc(NC(=O)c4nc5c(n4C)CCN(CCC46CCC(C(=O)O)(CC4)C6)C5)c3Cl)c2Cl)ncc1CN(C)CCN(C)C [Example 54, (Z)-4-(2-(2-((2,2′-dichloro-3′-(2-(5-(((2-(dimethylamino)ethyl)(methyl)amino)methyl)-4-methoxypyridin-2-yl)-2-fluorovinyl)-[1,1′-biphenyl]-3-yl)carbamoyl)-1-methyl-1,4,6,7-tetrahydro-5H-imidazo [4,5-c]pyridin-5-yl)ethyl)bicyclo[2.2.1]heptane-1-carboxylic acid] | 0.251
3 | COc1cc(/C(F)=C/c2cccc(-c3cccc(NC(=O)c4nc5c(n4C)CCN(CCC46CCC(C(=O)O)(CC4)C6)C5)c3Cl)c2Cl)ncc1CN1CCC2(CCC2)C1 [Example 55, (Z)-4-(2-(2-((3′-(2-(5-((6-azaspiro[3.4]octan-6-yl)methyl)-4-methoxypyridin-2-yl)-2-fluorovinyl)-2,2′-dichloro-[1,1′-biphenyl]-3-yl)carbamoyl)-1-methyl-1,4,6,7-tetrahydro-5H-imidazo[4,5-c]pyridin-5-yl)ethyl)bicyclo[2.2.1]heptane-1-carboxylic acid] | 0.149
4 | COc1cc(/C(F)=C/c2cccc(-c3cccc(NC(=O)c4nc5c(n4C)CCN(CCC46CCC(C(=O)O)(CC4)C6)C5)c3Cl)c2Cl)ncc1CN1CCC(O)(C(F)(F)F)C1 (stereo not drawn) [Example 61, (Z)-4-(2-(2-((2,2′-dichloro-3′-(2-fluoro-2-(5-((3-hydroxy-3-(trifluoromethyl)pyrrolidin-1-yl)methyl)-4-methoxypyridin-2-yl)vinyl)-[1,1′-biphenyl]-3-yl)carbamoyl)-1-methyl-1,4,6,7-tetrahydro-5H-imidazo [4,5-c]pyridin-5-yl)ethyl)bicyclo[2.2.1]heptane-1-carboxylic acid] | 0.522
5 | COc1cc(/C(F)=C/c2cccc(-c3cccc(NC(=O)c4nc5c(n4C)CCN(CCC46CCC(C(=O)O)(CC4)C6)C5)c3Cl)c2Cl)ncc1CN(C)C(C)C [Example 63, (Z)-4-(2-(2-((2,2′-dichloro-3′-(2-fluoro-2-(5-((isopropyl(methyl)amino)methyl)-4-methoxypyridin-2-yl)vinyl)-[1,1′-biphenyl]-3-yl)carbamoyl)-1-methyl-1,4,6,7-tetrahydro-5H-imidazo[4,5-c]pyridin-5-yl)ethyl)bicyclo[2.2.1]heptane-1-carboxylic acid] | 0.159
6 | COc1cc(/C(F)=C/c2cccc(-c3cccc(NC(=O)c4nc5c(n4C)CCN(CCC46CCC(C(=O)O)(CC4)C6)C5)c3Cl)c2Cl)ncc1CN1CCCCC1 [Example 65, (Z)-4-(2-(2-((2,2′-dichloro-3′-(2-fluoro-2-(4-methoxy-5-(piperidin-1-ylmethyl)pyridin-2-yl)vinyl)-[1,1′-biphenyl]-3-yl)carbamoyl)-1-methyl-1,4,6,7-tetrahydro-5H-imidazo[4,5-c]pyridin-5-yl)ethyl) bicyclo[2.2.1]heptane-1-carboxylic acid] | 0.137
7 | COc1cc(/C(F)=C/c2cccc(-c3cccc(NC(=O)c4nc5c(n4C)CCN(CCC46CCC(C(=O)O)(CC4)C6)C5)c3Cl)c2Cl)ncc1CN1CC[C@@H](N(C)C)C1 [Example 66, (R,Z)-4-(2-(2-((2,2′-dichloro-3′-(2-(5-((3-(dimethylamino)pyrrolidin-1-yl)methyl)-4-methoxypyridin-2-yl)-2-fluorovinyl)-[1,1′-biphenyl]-3-yl)carbamoyl)-1-methyl-1,4,6,7-tetrahydro-5H-imidazo[4,5-c]pyridin-5-yl)ethyl)bicyclo[2.2.1]heptane-1-carboxylic acid] | 0.347
8 | COc1cc(/C(F)=C/c2cccc(-c3cccc(NC(=O)c4nc5c(n4C)CCN(CCC46CCC(C(=O)O)(CC4)C6)C5)c3Cl)c2Cl)ncc1CN1Cc2cccnc2C1 [Example 68, (Z)-4-(2-(2-((2,2′-dichloro-3′-(2-(5-((5,7-dihydro-6H-pyrrolo[3,4-b]pyridin-6-yl)methyl)-4-methoxypyridin-2-yl)-2-fluorovinyl)-[1,1′-biphenyl]-3-yl)carbamoyl)-1-methyl-1,4,6,7-tetrahydro-5H-imidazo [4,5-c]pyridin-5-yl)ethyl)bicyclo[2.2.1]heptane-1-carboxylic acid] | 0.954

Continued by falling EC50, values first:

Row | EC50 [µM] | SMILES
9 | 0.134 | COc1cc(/C(F)=C/c2cccc(-c3cccc(NC(=O)c4nc5c(n4C)CCN(CCC46CCC(C(=O)O)(CC4)C6)C5)c3Cl)c2Cl)ncc1CN1CC[C@@H](F)C1 [Example 60, (R,Z)-4-(2-(2-((2,2′-dichloro-3′-(2-fluoro-2-(5-((3-fluoropyrrolidin-1-yl)methyl)-4-methoxypyridin-2-yl)vinyl)-[1,1′-biphenyl]-3-yl)carbamoyl)-1-methyl-1,4,6,7-tetrahydro-5H-imidazo[4,5-c]pyridin-5-yl)ethyl)bicyclo[2.2.1]heptane-1-carboxylic acid]
10 | 0.117 | COc1cc(/C(F)=C/c2cccc(-c3cccc(NC(=O)c4nc5c(n4C)CCN(CCC46CCC(C(=O)O)(CC4)C6)C5)c3Cl)c2Cl)ncc1CN1CCC2(CC(O)C2)C1 (stereo not drawn) [Example 62, (Z)-4-(2-(2-((2,2′-dichloro-3′-(2-fluoro-2-(5-((2-hydroxy-6-azaspiro [3.4]octan-6-yl)methyl)-4-methoxypyridin-2-yl)vinyl)-[1,1′-biphenyl]-3-yl)carbamoyl)-1-methyl-1,4,6,7-tetrahydro-5H-imidazo[4,5-c]pyridin-5-yl)ethyl)bicyclo[2.2.1]heptane-1-carboxylic acid]
11 | 0.116 | COc1cc(/C(F)=C/c2cccc(-c3cccc(NC(=O)c4nc5c(n4C)CCN(CCC46CCC(C(=O)O)(CC4)C6)C5)c3Cl)c2Cl)ncc1CN1CCC[C@H]1C(C)(C)O [Example 52, (S,Z)-4-(2-(2-((2,2′-dichloro-3′-(2-fluoro-2-(5-((2-(2-hydroxypropan-2-yl)pyrrolidin-1-yl)methyl)-4-methoxypyridin-2-yl)vinyl)-[1,1′-biphenyl]-3-yl)carbamoyl)-1-methyl-1,4,6,7-tetrahydro-5H-imidazo [4,5-c]pyridin-5-yl)ethyl)bicyclo[2.2.1]heptane-1-carboxylic acid]
12 | 0.113 | COc1cc(/C(F)=C/c2cccc(-c3cccc(NC(=O)c4nc5c(n4C)CCN(CCC46CCC(C(=O)O)(CC4)C6)C5)c3Cl)c2Cl)ncc1CN1CCC(C)(C)C1 [Example 64, (Z)-4-(2-(2-((2,2′-dichloro-3′-(2-(5-((3,3-dimethylpyrrolidin-1-yl)methyl)-4-methoxypyridin-2-yl)-2-fluorovinyl)-[1,1′-biphenyl]-3-yl)carbamoyl)-1-methyl-1,4,6,7-tetrahydro-5H-imidazo[4,5-c]pyridin-5-yl)ethyl)bicyclo[2.2.1]heptane-1-carboxylic acid]
13 | 0.072 | COc1cc(/C(F)=C/c2cccc(-c3cccc(NC(=O)c4nc5c(n4C)CCN(CCC46CCC(C(=O)O)(CC4)C6)C5)c3Cl)c2Cl)ncc1CN1C[C@@H](O)[C@H](F)C1 [Example 57, 4-(2-(2-((2,2′-dichloro-3′-((Z)-2-fluoro-2-(5-(((3R,4R)-3-fluoro-4-hydroxypyrrolidin-1-yl)methyl)-4-methoxypyridin-2-yl)vinyl)-[1,1-biphenyl]-3-yl)carbamoyl)-1-methyl-1,4,6,7-tetrahydro-5H-imidazo [4,5-c]pyridin-5-yl)ethyl)bicyclo[2.2.1]heptane-1-carboxylic acid]
14 | 0.0614 | COc1cc(/C(F)=C/c2cccc(-c3cccc(NC(=O)c4nc5c(n4C)CCN(CCC46CCC(C(=O)O)(CC4)C6)C5)c3Cl)c2Cl)ncc1CN1CC[C@@H](C)C1 [Example 56, (R,Z)-4-(2-(2-((2,2′-dichloro-3′-(2-fluoro-2-(4-methoxy-5-((3-methylpyrrolidin-1-yl)methyl)pyridin-2-yl)vinyl)-[1,1′-biphenyl]-3-yl)carbamoyl)-1-methyl-1,4,6,7-tetrahydro-5H-imidazo[4,5-c]pyridin-5-yl)ethyl)bicyclo[2.2.1]heptane-1-carboxylic acid]
15 | 0.0541 | COc1cc(/C(F)=C/c2cccc(-c3cccc(NC(=O)c4nc5c(n4C)CCN(CCC46CCC(C(=O)O)(CC4)C6)C5)c3Cl)c2Cl)ncc1CN1CCCC1(C)C [Example 67, (Z)-4-(2-(2-((2,2′-dichloro-3′-(2-(5-((2,2-dimethylpyrrolidin-1-yl)methyl)-4-methoxypyridin-2-yl)-2-fluorovinyl)-[1,1′-biphenyl]-3-yl)carbamoyl)-1-methyl-1,4,6,7-tetrahydro-5H-imidazo[4,5-c]pyridin-5-yl)ethyl)bicyclo[2.2.1]heptane-1-carboxylic acid]
